From US20070203114A1, “7,8,9,10-Tetrahydro-Imidazo [2,1-A] Isochinolines” (priority 2004, published 2007)

System: not given
Assay: not given
Settings: not given

Row | melting point | SMILES
1 | 165 to 167 °C | CCOC(=O)c1cn2c(C)c(C)nc2c2c1CCC(c1ccccc1)C2 (stereo not shown) [Example 1, 2,3-Dimethyl-9-phenyl-7,8,9,10-tetrahydro-imidazo[2,1-a]isoquinoline-6-carboxylic acid ethyl ester]
2 | 343 to 345 °C (dec.) | Cc1nc2c3c(c(C(=O)O)cn2c1C)CCC(c1ccccc1)C3 (stereo not shown) [Example 2, 2,3-Dimethyl-9-phenyl-7,8,9,10-tetrahydro-imidazo[2,1-a]isoquinoline-6-carboxylic acid]
3 | 266 to 268 °C | CNC(=O)c1cn2c(C)c(C)nc2c2c1CCC(c1ccccc1)C2 (stereo not shown) [Example 8, 2,3-Dimethyl-9-phenyl-7,8,9,10-tetrahydro-imidazo[2,1-a]isoquinoline-6-carboxylic acid methylamide]
4 | 290 to 292 °C | Cc1nc2c3c(c(CO)cn2c1C)CCC(c1ccccc1)C3 (stereo not shown) [Example 10, (2,3-Dimethyl-9-phenyl-7,8,9,10-tetrahydro-imidazo[2,1-a]isoquinolin-6-yl)-methanol]

System: pentagastrin-stimulated acid secretion of the perfused rat stomach
Assay: Secretion-inhibiting action on the perfused rat stomach (pentagastrin-stimulated acid secretion)
Format: in vivo
Settings: anesthetized CD rat, female; dose 3 μmol/kg i.d. (intraduodenal); pentagastrin 1 μg/kg i.v. continuous infusion
Text: Testing of the Secretion-Inhibiting Action on the Perfused Rat Stomach
In Table A which follows, the influence of the compounds according to the invention on the pentagastrin-stimulated acid secretion of the perfused rat stomach after intraduodenal administration in vivo is shown.
The abdomen anesthetized rats (CD rat, female, 200-250 g; 1.5 g/kg i.m. urethane) was opened after tracheotomy by a median upper abdominal incision and a PVC catheter was fixed transorally in the esophagus and another via the pylorus such that the ends of the tubes just projected into the gastric lumen. The catheter leading from the pylorus led outward into the right abdominal wall through a side opening.
After thorough rinsing (about 50-100 ml), warm (37° C.) physiological NaCl solution was continuously passed through the stomach (0.5 ml/min, pH 6.8-6.9; Braun-Unita I). The pH (pH meter 632, glass electrode EA 147; φ=5 mm, Metrohm) and, by titration with a freshly prepared 0.01N NaOH solution to pH 7 (Dosimat 665 Metrohm), the secreted HCl were determined in the effluent in each case collected at an interval of 15 minutes.
The gastric secretion was stimulated by continuous infusion of 1 μg/kg (=1.65 ml/h) of i.v. pentagastrin (left femoral vein) about 30 min after the end of the operation (i.e. after determination of 2 preliminary fractions). The substances to be tested were administered intraduodenally in a 2.5 ml/kg liquid volume 60 min after the start of the continuous pentagastrin infusion.
The body temperature of the animals was kept at a constant 37.8-38° C. by infrared irradiation and heat pads (automatic, stepless control by means of a rectal temperature sensor).

Row | SMILES | Inhibition of acid secretion
5 | Cc1nc2c3c(c(C(=O)N(C)C)cn2c1C)CCC(c1ccccc1)C3 (stereo not shown) [Example 3, 2,3-Dimethyl-9-phenyl-7,8,9,10-tetrahydro-imidazo[2,1-a]isoquinoline-6-carboxylic acid dimethylamide] | >40%
6 | Cc1nc2c3c(c(C(=O)N4CCCC4)cn2c1C)CCC(c1ccccc1)C3 (stereo not shown) [Example 4, (2,3-Dimethyl-9-phenyl-7,8,9,10-tetrahydro-imidazo[2,1-a]isoquinolin-6-yl)-pyrrolidin-1-yl-methanone] | >40%
7 | COCCNC(=O)c1cn2c(C)c(C)nc2c2c1CCC(c1ccccc1)C2 (stereo not shown) [Example 6, 2,3-Dimethyl-9-phenyl-7,8,9,10-tetrahydro-imidazo[2,1-a]isoquinoline-6-carboxylic acid (2-methoxy-ethyl)-amide] | >40%
8 | Cc1nc2c3c(c(C(=O)N4CCOCC4)cn2c1C)CCC(c1ccccc1)C3 (stereo not shown) [Example 7, (2,3-Dimethyl-9-phenyl-7,8,9,10-tetrahydro-imidazo[2,1-a]isoquinolin-6-yl)-morpholin-4-yl-methanone] | >40%
9 | CNC(=O)c1cn2c(C)c(C)nc2c2c1CCC(c1ccccc1)C2 (stereo not shown) [Example 8, 2,3-Dimethyl-9-phenyl-7,8,9,10-tetrahydro-imidazo[2,1-a]isoquinoline-6-carboxylic acid methylamide] | >40%
10 | COCc1cn2c(C)c(C)nc2c2c1CCC(c1ccccc1)C2 (stereo not shown) [Example 11, 6-Methoxymethyl-2,3-dimethyl-9-phenyl-7,8,9,10-tetrahydro-imidazo[2,1]isoquinoline] | >40%
